From article PMC6977516, “An assessment of the interaction for three Chrysanthemum indicum flavonoids and α‐amylase by surface plasmon resonance” (Food Science & Nutrition, 2019)
Where two headings read alike, the source gives them in different places. Marks after values point to notes of the source that are not given here.

What was measured:
α-amylase [1] = target: T1, α-amylase (Bacillus subtilis, UniProt P00691); assay: Inhibition kinetics of α-amylase by Lineweaver-Burk plots; assay type: biochemical; conditions: for Inhibitory type: Lineweaver-Burk plots, starch 0.25-1.25 mg/ml
T1 construct: purchased Shanghai Ryon Biological Technology Co. Ltd
Method: To further explore the inhibitory type of three flavonoids on α‐amylase, kinetic analysis was carried out by using Lineweaver–Burk plots. Starch was used as substrate, and the inhibition kinetics of α‐amylase was evaluated by varying four different concentrations (0.25, 0.50, 1.00, and 1.25 mg/ml) of starch in the absence or presence of three flavonoids. The Lineweaver–Burk plots of the three flavonoids can be obtained from the double‐reciprocal plots between 1/[S] (starch concentration) and 1/[V] (reaction rate). Besides, different concentrations of flavonoids (0, 5, and 10 μM) were used and the three Lineweaver––Burk plots for each flavonoid can be obtained. The Ki (inhibition constant) value was obtained from the least‐squares regression line of the slopes of Lineweaver–Burk plots versus the corresponding flavonoid concentrations [I] (Kandra, Gyémánt, Zajácz, & Batta, 2004; Yang et al., 2014). The formula is(3) slope=Km/Vmax1+[I]/Ki Ki = intercept of Equation (3) on x axis (Yang et al., 2014)

[2] = DPPH radical assay without or with α-amylase; conditions: mean ± RSD (n = 3); for Inhibition (%) of antioxidant activity by binding to α-amylase: (add α-amylase IC50 − not add α-amylase IC50)/not add α-amylase IC50
Method: The DPPH assay was performed to assess effect of α‐amylase on antioxidant activity of three flavonoids as following procedure (Kim et al., 2014). 2 mM DPPH solution was prepared by dissolving 0.0787 g of DPPH in 100 ml of anhydrous ethanol and stored at −20°C. α‐Amylase (300 μM) and three flavonoids (2.5–125 μM) were prepared with PBS (pH = 6.0) and ethanol, respectively. Samples were prepared by mixing flavonoids solution (without or with 10 μl α‐amylase), 100 μl of DPPH, and anhydrous ethanol. Then, samples were incubated for 10 min at room temperature. Absorbance at 517 nm was measured in the spectrophotometer. DPPH radical scavenging activity was calculated as follows (Liu et al., 2017):(4) DPPHradicalscavengingactivity(%)=1-Ai-Aj/Ac×100% in which AC is the absorbance of the DPPH (100 μl DPPH and 100 μl ethanol), Ai is the absorbance of the DPPH and sample (100 μl DPPH, 50 μl flavonoids, and 50 μl ethanol, or 100 μl DPPH, 50 μl flavonoids, 10 μl α‐amylase, and 40 μl ethano1), and Aj is the absorbance of the blank sample (50 μl flavonoids and 150 μl ethanol). All experiments were carried out in triplicate, and the results were expressed as mean ± RSD. IC50 values were obtained based on plotting the percentage of DPPH radical scavenging activity against the flavonoids concentration.

α-amylase [3] = target: T1, α-amylase; assay: SPR binding assay of flavonoids to immobilized α-amylase; conditions: for kon: pH 6, read-out: Ka (association rate constant); for koff: pH 6, read-out: Kd (dissociation rate constant) × 10^–3
Method: A commercial BI‐2000 SPR instrument (Biosensing Instrument Inc.) was used for all SPR experiments in this study. The bare Au sensor chip was obtained from Biosensing Instrument Inc. The preparation of Au sensor chip can be referred to our previous published paper (Liu et al., 2014). A flow delivery system incorporated in the BI‐SPR platform pumped samples onto the SPR sensor chip at a flow rate of 10 μl/min. The 0.01 M PBS (pH = 6.0) buffer was used as the running buffer. The BI‐SPR 2000 control software (version 2.2.0.) was used to perform instrument operation and data processing. The Varioskan Flash (Multiskan GO 1510, Thermo Fisher Scientific) was used for the α‐amylase inhibitory activity and DPPH radical assays.
Binding assay of three flavonoids to α‐amylase was carried out using the SPR sensor. The immobilization of α‐amylase on the chip surface was performed using a standard amine coupling procedure as described previously (Liu, Luo, Li, She, & Gao, 2017). […] After the stable baseline was obtained, different concentrations of flavonoids (50–800 μM) were injected over the chip surface coated with α‐amylase, respectively. The SPR angle was monitored until the baseline stabilization. To enable reuse of the SPR chip, the chip surface could be regenerated using 2 mM NaOH after each measurement. Regeneration parameters were based on the strength of interaction between the analyte and α‐amylase. The chip surface was rinsed by PBS between each step. All the experiments were repeated three times, and kinetic parameters (ka, kd) were deduced by nonlinear fitting of the primary sensorgram data based on the 1:1 Langmuir‐binding model using the BI‐SPR 2000 control software (version 2.2.0.). The model has been widely used in protein–ligand binding analysis and can be calculated through the following formula (Gombau et al., 2019; Islam, Shen, Gurgel, Rojas, & Carbonell, 2014; Lee, Jeong, Jones, & Kim, 2011):(1) dR/dt=kaCRmax-R-kdR where R is the SPR signal at time t, and C is the concentration of the analyte. R max is the maximum analyte binding capacity in SPR signal. ka is the association rate constant and kd is the dissociation rate constant.

α-amylase [4] = target: T1, α-amylase; assay: SPR: effect of pH and salt on the interaction between flavonoids and α-amylase; assay type: binding; conditions: flavonoid 200 μM; for optimal CaCl2 concentration for binding with α-amylase: CaCl2 0.04-0.2 M; for optimal MgCl2 concentration for binding with α-amylase: MgCl2 0.02-0.25 M
Method: The effect of pH on the interaction between three flavonoids and α‐amylase was carried out within the pH range (3–9) based on the method described in the above experiment. As is known to all, metal ions play a crucial role in maintaining normal physiological function of the α‐amylase. Moreover, salt is also widely used in food industry. To evaluate whether KCl, MgCl2, and CaCl2 can interfere with the interaction between flavonoids and α‐amylase, a series of 200 μM flavonoids with a various concentrations of KCl (0.02–0.3 M), MgCl2 (0.02–0.25 M), or CaCl2 (0.04–0.2 M) solutions were flowed over the chip surface modified with α‐amylase, respectively.

[5] = with 10 μl α-amylase (300 μM), read-out: Add α-amylase IC50 (DPPH radical scavenging)
[6] = without α-amylase, read-out: Not add α-amylase IC50 (DPPH radical scavenging)

T1 sequence (P00691 42-659): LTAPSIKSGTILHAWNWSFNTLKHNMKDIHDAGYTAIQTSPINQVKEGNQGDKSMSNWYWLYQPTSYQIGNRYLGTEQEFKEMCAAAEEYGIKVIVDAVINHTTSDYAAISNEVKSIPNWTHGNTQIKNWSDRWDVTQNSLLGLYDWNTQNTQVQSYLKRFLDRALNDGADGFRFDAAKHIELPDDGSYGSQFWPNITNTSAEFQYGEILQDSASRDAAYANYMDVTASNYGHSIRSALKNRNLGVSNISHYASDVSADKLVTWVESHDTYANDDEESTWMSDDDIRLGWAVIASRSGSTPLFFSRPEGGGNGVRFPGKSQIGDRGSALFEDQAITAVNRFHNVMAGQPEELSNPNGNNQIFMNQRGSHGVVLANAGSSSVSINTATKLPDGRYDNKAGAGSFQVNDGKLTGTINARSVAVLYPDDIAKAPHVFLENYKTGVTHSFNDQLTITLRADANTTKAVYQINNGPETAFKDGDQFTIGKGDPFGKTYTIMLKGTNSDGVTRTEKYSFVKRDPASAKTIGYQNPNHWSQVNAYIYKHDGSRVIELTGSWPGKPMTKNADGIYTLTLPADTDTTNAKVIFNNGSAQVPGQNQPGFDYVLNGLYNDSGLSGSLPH

Structure (SMILES)	Ki (α-amylase [1])	Inhibitory type (α-amylase [1])	Inhibition (%) of antioxidant activity by binding to α-amylase [2]	IC50 [2, 5]	IC50 [2, 6]	Kd (α-amylase [3])	kon (α-amylase [3])	koff (α-amylase [3])	optimal CaCl2 concentration for binding with α-amylase (α-amylase [4])	optimal MgCl2 concentration for binding with α-amylase (α-amylase [4])	Ki (α-amylase [1]; slopes of Lineweaver-Burk plots vs flavonoid concentration (0, 5, 10 μM), starch substrate, read-out: Ki)	Kd (α-amylase [3]; SPR, 1:1 model, pH 6.0, mean ± RSD (n = 3), read-out: KD (equilibrium dissociation constant))
COc1ccc(-c2cc(=O)c3c(O)cc(O[C@@H]4O[C@H](CO[C@@H]5O[C@@H](C)[C@H](O)[C@@H](O)[C@H]5O)[C@@H](O)[C@H](O)[C@H]4O)cc3o2)cc1 [Buddleoside]	43.5 µM	Noncompetitive	21.65 ± 0.04^a %	79.13 ± 0.012 µM	65.05 ± 0.02 µM	3.3 ± 0.08 mM	2.54 ± 0.2 M⁻¹ s⁻¹	0.0083 ± 0.00015 s⁻¹	0.100 M	0.120 M		
O=c1cc(-c2ccc(O)c(O)c2)oc2cc(O)cc(O)c12 [Luteolin, luteolin]		Noncompetitive	49.93 ± 0.037^c %	75.2 µM	50.1 µM		4.12 ± 0.1 M⁻¹ s⁻¹	0.00808 ± 0.00011 s⁻¹	0.120 M	0.150 M	26.8 µM	1.97 ± 0.12 mM
COc1ccc(-c2cc(=O)c3c(O)cc(O)cc3o2)cc1 [Acacetin, acacetin]	39.7 µM	Noncompetitive		77.8 µM	61.3 µM	2.92 ± 0.2 mM	2.76 ± 6 M⁻¹ s⁻¹	0.008 ± 0.00015 s⁻¹	0.100 M	0.120 M		
